Assay results reported in US11331375B2, “Compositions and methods for regulating leukocyte adhesion” (University of Virginia Patent Foundation, priority 2015, dated 2022).

How the values were obtained:
[1] = test system: THP-1 monocyte adhesion to HUVEC; test: Static adhesion assay, THP-1 monocytes on HUVEC; format: cell-based, human; conditions: HUVEC monolayers activated with TNFα for 30 minutes
Method: HUVECs were seeded on gelatin-coated glass coverslips in 6-well plates and grown to confluence. On the day of the experiment, cells were washed 2× with 1× PBS and incubated for 30 minutes in basal EGM supplemented with 1% BSA in the presence or absence of pharmacological inhibitors. During this incubation period, human THP-1 monocytes were loaded with Calcein-AM (Invitrogen; 5 μg/mL) for 30 minutes at 37° C. Cells were then pelleted by brief centrifugation and excess calcein was removed by washing THP-1 cells 3 times in 1× PBS. Next, HUVECs were stimulated with TNFα (10 ng/mL) for 30 minutes. Following EC activation, calcein-loaded THP-1 monocytes were added to EC monolayers and incubated for 20 minutes at 37° C. to allow THP-1 to contact ECs. Monolayers were then washed 3× with 1× PBS and fixed in ice cold 4% PFA. Following fixation, coverslips were removed from the 6-well plates and mounted on glass microscope slides with Prolong Gold anti-fade mountant with DAPI (Life Technologies). Fluorescent micrographs were obtained at 10×magnification and the number of adherent THP-1 monocytes/ECs was quantified in 5 randomized regions/slide. Data are expressed as mean±SEM (n=3 independent experiments).

[2] = test system: isolated mesenteric venules; test: LDH release assay in perfused venules; format: cell-based, mouse; conditions: perfusion of TNFα
Method: Isolated mesenteric venules were cannulated and perfused with recombinant mouse TNFα for 20 minutes followed by lysis buffer. Perfusate samples were collected as described above and LDH activity was assayed with the Cytotoxicity Detection Kit Plus (Roche) according to the manufacturer's protocol as an output for cell death. Data are expressed as mean±SEM (n=3 independent experiments).

[3] = test system: paired mesenteric arterioles; test: Ex vivo vascular perfusion ATP release assay, mesenteric arterioles; format: cell-based, mouse; conditions: TNFα 50 ng/mL
Method: (§1) For isolated blood vessel experiments, 2nd order venules or arterioles were dissected from the mouse mesentery circulation and cannulated on glass micropipettes to access the vessel lumen. […] Vessels were then perfused with MOPS PSS containing 300 μM ARL 67156 +/− pharmacological inhibitors and incubated for an additional 20 minutes prior to perfusion with MOPS PSS containing recombinant murine TNFα (R&D Systems). Aliquots of the lumenal perfusate were collected every 5 minutes for a 25-minute period and the ATP concentration was quantified by bioluminescence as described above. Data are expressed as mean±SEM (n=4 independent experiments).

[4] = test system: Panx1; test: Western blot of Panx1 phosphorylation at Y198 in venous ECs; format: cell-based, human; conditions: HUVEC and HSaVECs; TNFα 10 ng/mL
Method: Following stimulation with TNFα (in vitro: 10 ng/mL; ex vivo: 50 ng/mL), confluent endothelial cell monolayers or isolated mesenteric venules were homogenized in ice cold Triton extraction buffer (50 mM Tris-HCL, 150 mM NaCl , 5 mM EDTA, 1% deoxycholate, 1% NP-40 and 1% Triton-X100 in phosphate buffered saline and pH adjusted to 7.4) containing protease and phosphatase inhibitors. Cell/Tissue lysates were incubated with rotation at 4° C. for 20 minutes to solubilize proteins, followed by centrifugation for 5 minutes at 13,000× g to pellet cell debris. Protein concentration was quantified using the BCA method. 15-20 μg of total protein was subjected to SDS gel electrophoresis using 4-12% Bis-Tris gels (Invitrogen) and transferred to nitrocellulose membranes for immunoblotting. Membranes were blocked for 1 hr at room temperature with LiCOR blocking solution, then incubated overnight at 4° C. with primary antibodies against pY416SFKs, (BD Biosciences; 1:1000) pY198Panx1 (Alpha Diagnostic Intl (ADI); 1:1000) and GAPDH (Sigma; 1:10,000) or an antibody against the intracellular loop of Panx1 (Panx1-IL) (ADI; 1:1000) (normalization controls). Membranes were then washed and incubated with LiCOR secondary antibodies (1:10,000) and visualized and quantitated using LiCOR Odyssey. To inhibit SFK activity, EC monolayers were incubated with the SFK inhibitor PP2 (Tocris; 10 μM). […] To show specificity for the phosphorylated form of SFKs and Panx1, cell lysates were incubated with alkaline phosphatase for 1 hour at 37° C. Western blot images have been cropped for presentation. Uncropped Western blots can be found in FIGS. 12-13. Data are expressed as mean±SEM (n=3 independent experiments).

[5] = test system: Src Family Kinases (SFK); test: Western blot of SFK activation in isolated mesenteric venules; format: cell-based, mouse; conditions: mesenteric venules perfused with TNFα 50 ng/mL 30 minutes
Method: (§2) Following stimulation with TNFα (in vitro: 10 ng/mL; ex vivo: 50 ng/mL), confluent endothelial cell monolayers or isolated mesenteric venules were homogenized in ice cold Triton extraction buffer (50 mM Tris-HCL, 150 mM NaCl , 5 mM EDTA, 1% deoxycholate, 1% NP-40 and 1% Triton-X100 in phosphate buffered saline and pH adjusted to 7.4) containing protease and phosphatase inhibitors. Cell/Tissue lysates were incubated with rotation at 4° C. for 20 minutes to solubilize proteins, followed by centrifugation for 5 minutes at 13,000× g to pellet cell debris. Protein concentration was quantified using the BCA method. 15-20 μg of total protein was subjected to SDS gel electrophoresis using 4-12% Bis-Tris gels (Invitrogen) and transferred to nitrocellulose membranes for immunoblotting. Membranes were blocked for 1 hr at room temperature with LiCOR blocking solution, then incubated overnight at 4° C. with primary antibodies against pY416SFKs, (BD Biosciences; 1:1000) pY198Panx1 (Alpha Diagnostic Intl (ADI); 1:1000) and GAPDH (Sigma; 1:10,000) or an antibody against the intracellular loop of Panx1 (Panx1-IL) (ADI; 1:1000) (normalization controls). Membranes were then washed and incubated with LiCOR secondary antibodies (1:10,000) and visualized and quantitated using LiCOR Odyssey. […] Data are expressed as mean±SEM (n=3 independent experiments).

[6] = test system: HSaVEC; test: In vitro ATP release assay (luciferin:luciferase), HSaVEC; format: cell-based, human; conditions: HSaVEC monolayers
Method: In vitro Human arterial and venous ECs were seeded in 24-well plates pre-coated with 0.2% gelatin and grown to confluency. On the day of experiment, the media was removed from each well and cells were carefully washed twice with warm serum free basal EC medium supplemented with 1% BSA. Cells were then incubated in 300 μL of fresh basal EC medium supplemented with 1% BSA for 30 minutes at 37° C. to allow degradation of extracellular ATP released due to mechanical stimulation during washes. Endogenous ecto-nucleotidases were inhibited by incubating EC monolayers with 300 μM ARL 67156 (Tocris) for 30 minutes at 37° C. Cells were then stimulated with recombinant human TNFα (R&D Systems). For dose response experiments, ECs were incubated with 0.1, 1, 5, 10, 50, or 100 ng/mL recombinant TNFα for 30 minutes at 37° C. For time-course experiments, ECs were stimulated with 10 ng/mL recombinant TNFα for different time points up to 1 hour. In experiments where pharmacological inhibitors were employed, ECs were incubated with antagonists in parallel with ARL 67156 for 30 minutes. To inhibit TNFR1, ECs were incubated with the peptide antagonist of the receptor WP9QY (10 μM; Anaspec). […] Cx hemichannels were inhibited with lanthanum (La^3+; 100 μM; Sigma) and Panx1 channels were blocked with carbenoxolone (CBX; 50 μM; Sigma) and the inhibitory peptide ^10panx1 (200 μM; Genscript). […] The role of caspase activation was assessed by inhibition with the pan-caspase blocker Q-VD-OPh (100 μM; Sigma). Following stimulation with TNFα or vehicle, 150 μL of the cell supernatant was collected and immediately placed into pre-chilled 1.5 mL Eppendorf tubes on ice. All samples were centrifuged at 10,000×g for 5 minutes and 50 μL of each sample was transferred to a white, opaque 96-well plate. Using a FluoStar Omega luminometer, 50 μL of luciferin:luciferase reagent (ATP bioluminescence assay kit HSII; Roche) was injected into each well and luminescence was recorded following a 5s orbital mix. ATP concentration in each sample was calculated from a standard curve for all experiments. Data are presented as a % change in ATP release from baseline (i.e. unstimulated cells) and expressed as mean±SEM (n=5 independent experiments with triplicate measurements).

[7] = test system: HCoAEC; test: In vitro ATP release assay, HCoAEC; format: cell-based, human
Method: In vitro Human arterial and venous ECs were seeded in 24-well plates pre-coated with 0.2% gelatin and grown to confluency. On the day of experiment, the media was removed from each well and cells were carefully washed twice with warm serum free basal EC medium supplemented with 1% BSA. Cells were then incubated in 300 μL of fresh basal EC medium supplemented with 1% BSA for 30 minutes at 37° C. to allow degradation of extracellular ATP released due to mechanical stimulation during washes. Endogenous ecto-nucleotidases were inhibited by incubating EC monolayers with 300 μM ARL 67156 (Tocris) for 30 minutes at 37° C. Cells were then stimulated with recombinant human TNFα (R&D Systems). For dose response experiments, ECs were incubated with 0.1, 1, 5, 10, 50, or 100 ng/mL recombinant TNFα for 30 minutes at 37° C. […] The role of caspase activation was assessed by inhibition with the pan-caspase blocker Q-VD-OPh (100 μM; Sigma). […] Using a FluoStar Omega luminometer, 50 μL of luciferin:luciferase reagent (ATP bioluminescence assay kit HSII; Roche) was injected into each well and luminescence was recorded following a 5s orbital mix. ATP concentration in each sample was calculated from a standard curve for all experiments. Data are presented as a % change in ATP release from baseline (i.e. unstimulated cells) and expressed as mean±SEM (n=5 independent experiments with triplicate measurements).

[8] = test system: Panx1; test: Western blot of pY198Panx1 in isolated mesenteric venules; format: cell-based, mouse; conditions: mesenteric venules perfused with TNFα 50 ng/mL 30 minutes
Method: as §2

[9] = test system: isolated murine mesenteric venules; test: Ex vivo vascular perfusion ATP release assay, mesenteric venules; format: cell-based, mouse; conditions: lumenal perfusion
Method: as §1

Substance: TNFα
- increase of THP-1 monocyte adhesion [1]: ~4 fold
- cell death (LDH accumulation in perfusates) [2]: did not induce cell death
- ATP accumulation in the perfusate on cytokine perfusion [3]: absent
- Panx1 phosphorylation at Y198 [4]: increased phosphorylation at Y198
- SFK activation [5]: increasing SFK activation
- ATP release on cytokine stimulation [6]: significant increase
- ATP release on cytokine stimulation [7]: failed to release ATP
- phosphorylation of Panx1 [8]: promoted phosphorylation of Panx1
- ATP accumulation in the perfusate on cytokine perfusion [9]: time- and dose-dependent increase
